Laboratory results taken from patent US20250236530A1, “ACCELERATED TOOTH REMINERALIZATION TECHNOLOGY” (Creighton University, priority 2022, published 2025).
Read-outs that look alike come from different tables or passages of the source.

Tests used:
[1] = Hall density (ASTM Standard B212-99)
[2] = Surface area (BET method) normalized to mass; assay type: physicochemical
Text: Further characterization of the HSA NaF crystals compared to the solid cubic commercially available crystals of sodium fluoride examined the surface area (BET method) normalized to the mass of the crystals. […] Use of either of the Hall density of the surface area normalized to mass allows for a quantitative mechanism to differentiate the crystal formation.

[3] = for percent of salt dissolved in first 3 seconds: room temperature, FIG. 5; for initial conductivity reading at 3 seconds: first reading 3 seconds; for percent of NaF dissolved in the first 3 seconds: from conductivity; for 3 sec Dissolution: Table 4, 3 sec; for 200 sec Dissolution: Table 4, 200 sec; for 400 sec Dissolution: Table 4, 400 sec; for 800 sec Dissolution: Table 4, 800 sec
Description: Such a test is a standard test that is well understood in the scientific community. In this experiment, at room temperature, 35 mg of commercially available solid cubic sodium fluoride was added to a beaker. A conductivity probe was placed into the beaker. 25 mL of ultrapure water was added to the beaker, instantaneously submerging the conductivity probe. Conductivity data can be collected every 3 seconds on the probe.
This is tested by adding to a beaker 56 mg of the given salt to be tested. To this is added a conductivity probe. As the salt is added, the solution is stirred.
The dissolution rate of NaF crystals correlates to the conductivity of NaF in solution. That is to say, as salt dissolves in water, the conductivity of the salt solution increases. […] Conductivity is utilized to test the rate of dissolution. The conductivity of ultrapure water is approximately […] when no ions are present. The first reading on the conductivity meter can be made 3 seconds after the experiment begins.

Question: Which Hall density ([1]; listed as Commercial solid cubic crystals of sodium fluoride) does the source give for [F-].[Na+] [commercial NaF, sodium fluoride] here?
Answer: 0.86 ± 0.03 g/mL

Question: And the “surface area to mass ratio” value ([2]; listed as commercial crystals)?
Answer: 0.12±0.02 m^2/g

Question: What about the “percent of salt dissolved in first 3 seconds” value ([3]; 35 mg in 25 mL ultrapure water, listed as commercially available solid cubic sodium fluoride) of the same molecule?
Answer: approximately 33%

Question: What about the “conductivity after all of the salt dissolved” value ([3]; FIG. 7A) of the same molecule?
Answer: 2,605 μS/cm

Question: What about the “time before all the NaF dissolved” value ([3]; FIG. 7A) of the same molecule?
Answer: About 500 seconds

Question: What about the “initial conductivity reading at 3 seconds” value ([3]; FIG. 7A) of the same molecule?
Answer: 1,127 μS/cm

Question: And the “percent of NaF dissolved in the first 3 seconds” value (shortened to “percent of NaF dissolved”) ([3]; FIG. 7A)?
Answer: ~43%

Question: And the “3 sec Dissolution” value ([3]; listed as Ordinary)?
Answer: ~1,000

Question: And the “200 sec Dissolution” value ([3]; listed as Ordinary)?
Answer: ~1,175

Question: What about the “400 sec Dissolution” value ([3]; listed as Ordinary) of the same molecule?
Answer: ~1,500

Question: And the “800 sec Dissolution” value ([3]; listed as Ordinary)?
Answer: ~2,500

Question: And the “time for ordinary crystal to reach the concentration of HSA crystal's virtual maximum release” value ([3]; dissolution in water)?
Answer: more than ten minutes

Question: Which “peak conductivity of sodium fluoride solution” value ([3]; 35 mg in 25 mL ultrapure water) does the source give for [F-].[Na+] [sodium fluoride] here?
Answer: approximately 3,000 μS/cm

Question: With [F-].[Na+] [crystals made from precipitation into 90% ethanol] [sodium fluoride] as the molecule, how does the “percent of NaF dissolved” value ([3]; FIG. 7A) read?
Answer: 60%

Question: Which Hall density ([1]; listed as HSA NaF hopper crystals) does the source give for [F-].[Na+] [HSA NaF crystals, sodium fluoride] here?
Answer: 0.68 ± 0.04 g/mL

Question: What about the “surface area to mass ratio” value ([2]; listed as hopper crystals) of the same molecule?
Answer: 0.22±0.04 m^2/g

Question: And the “percent of salt dissolved in first 3 seconds” value ([3]; 35 mg in 25 mL ultrapure water, listed as HSA crystal NaF)?
Answer: approximately 90%

Question: And the “3 sec Dissolution” value ([3]; listed as High Surface Area)?
Answer: ~2,600

Question: And the “200 sec Dissolution” value ([3]; listed as High Surface Area)?
Answer: ~2,625

Question: What about the “400 sec Dissolution” value ([3]; listed as High Surface Area) of the same molecule?
Answer: ~2,700

Question: What about the “800 sec Dissolution” value ([3]; listed as High Surface Area) of the same molecule?
Answer: ~2,750

Question: What about the “rate of dissolution in aqueous environment compared with commercial cubic crystals” value ([3]; conductivity as a function of time) of the same molecule?
Answer: greater rate than commercially available cubic crystals

Question: What about the “time to reach virtual maximum release” value ([3]; dissolution in water) of the same molecule?
Answer: 3 s

Question: Which “initial conductivity reading at 3 seconds” value ([3]; FIG. 7A) does the source give for [F-].[Na+] [85% ethanol formulation, sodium fluoride] here?
Answer: 2,068 μS/cm

Question: And the “percent of NaF dissolved” value ([3]; FIG. 7A)?
Answer: approximately 79%
